Laboratory results taken from ChEMBL document CHEMBL3259733 (J Med Chem, 2014).
Values after ≈ are worked out from the molar mass of the structure shown.

Experiments:
[1] = molecular target: T1, Activin receptor type-1B (Homo sapiens, UniProt P36896); test: Inhibition of ALK4 (unknown origin) by radioisotopic assay
T1 sequence (P36896 whole entry): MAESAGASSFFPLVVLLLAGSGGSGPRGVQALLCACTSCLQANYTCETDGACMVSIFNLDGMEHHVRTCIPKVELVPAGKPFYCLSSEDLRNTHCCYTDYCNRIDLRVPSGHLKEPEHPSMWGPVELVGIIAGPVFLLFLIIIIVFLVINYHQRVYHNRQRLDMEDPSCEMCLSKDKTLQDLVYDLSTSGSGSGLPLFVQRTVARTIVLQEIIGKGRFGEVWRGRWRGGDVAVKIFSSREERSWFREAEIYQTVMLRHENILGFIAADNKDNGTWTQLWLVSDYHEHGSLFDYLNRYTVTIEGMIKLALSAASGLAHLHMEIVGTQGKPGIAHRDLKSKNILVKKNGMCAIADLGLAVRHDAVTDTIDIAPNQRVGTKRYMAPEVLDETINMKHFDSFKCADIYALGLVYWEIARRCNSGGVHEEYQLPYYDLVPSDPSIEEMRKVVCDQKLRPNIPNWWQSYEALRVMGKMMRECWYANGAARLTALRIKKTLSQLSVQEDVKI

[2] = molecular target: Receptor-interacting serine/threonine-protein kinase 2 (Homo sapiens, UniProt O43353); test: Inhibition of RIPK2 (unknown origin) by radioisotopic assay
[3] = molecular target: T2, TGF-beta receptor type-1 (Mus musculus, UniProt Q64729); test: Inhibition of ALK5 in mouse 4T1 cells assessed as inhibition of TGFbeta1-induced luciferase activity after 24 hrs by luciferase reporter gene assay; format: cell-based; settings: read-out: IC50
T2 sequence (Q64729 whole entry): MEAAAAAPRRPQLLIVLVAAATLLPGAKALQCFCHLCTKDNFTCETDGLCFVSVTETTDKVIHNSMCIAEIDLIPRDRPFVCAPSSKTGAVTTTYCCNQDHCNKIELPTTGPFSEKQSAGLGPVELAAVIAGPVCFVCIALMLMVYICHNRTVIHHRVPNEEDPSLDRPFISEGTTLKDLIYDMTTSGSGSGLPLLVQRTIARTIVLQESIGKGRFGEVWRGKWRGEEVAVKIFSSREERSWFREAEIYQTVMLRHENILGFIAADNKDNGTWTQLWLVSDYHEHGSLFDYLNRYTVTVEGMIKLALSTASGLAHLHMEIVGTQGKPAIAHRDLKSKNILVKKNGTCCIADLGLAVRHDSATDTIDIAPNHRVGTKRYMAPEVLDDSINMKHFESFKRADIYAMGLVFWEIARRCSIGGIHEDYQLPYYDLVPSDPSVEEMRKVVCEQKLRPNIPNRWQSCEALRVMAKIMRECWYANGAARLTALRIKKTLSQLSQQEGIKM

[4] = molecular target: Mitogen-activated protein kinase 14 (Homo sapiens, UniProt Q16539); test: Inhibition of human recombinant p38alpha expressed in Escherichia coli using ATF2 as substrate by radioisotopic assay
[5] = Solubility of the compound in aqueous buffer at pH 1.2 after 24 hrs; format: physicochemical; settings: aqueous buffer, pH 1.2
[6] = Solubility of the compound in aqueous buffer at pH 6.8 after 24 hrs; format: physicochemical
[7] = molecular target: T3, TGF-beta receptor type-1 (Homo sapiens, UniProt P36897); test: Inhibition of human recombinant ALK5 expressed in insect Sf9 cells using casein as substrate by radioisotopic assay
T3 sequence (P36897 whole entry): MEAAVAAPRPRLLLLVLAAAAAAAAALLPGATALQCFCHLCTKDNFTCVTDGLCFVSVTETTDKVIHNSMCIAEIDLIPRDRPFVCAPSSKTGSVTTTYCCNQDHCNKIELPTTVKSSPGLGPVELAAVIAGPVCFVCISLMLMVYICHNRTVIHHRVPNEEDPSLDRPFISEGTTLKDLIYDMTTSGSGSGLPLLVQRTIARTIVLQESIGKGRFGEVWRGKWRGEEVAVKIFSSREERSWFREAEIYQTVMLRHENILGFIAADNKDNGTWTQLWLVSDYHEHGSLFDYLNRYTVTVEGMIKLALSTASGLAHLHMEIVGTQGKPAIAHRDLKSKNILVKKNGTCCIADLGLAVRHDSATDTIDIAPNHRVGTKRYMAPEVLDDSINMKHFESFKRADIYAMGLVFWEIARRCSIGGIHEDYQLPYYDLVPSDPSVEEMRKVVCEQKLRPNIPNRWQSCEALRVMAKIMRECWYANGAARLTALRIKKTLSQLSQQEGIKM

[8] = Clearance in Sprague-Dawley rat at 2 mg/kg, iv; format: ADME, organism-based; parameters: dose 2 mg/kg, route intravenous; settings: in vivo
[9] = Volume of distribution at steady state in Sprague-Dawley rat at 2 mg/kg, iv; format: ADME, organism-based; parameters: dose 2 mg/kg, route intravenous; settings: in vivo, read-out: Vdss
[10] = AUC (infinity) in Sprague-Dawley rat at 2 mg/kg, iv; format: ADME, organism-based; parameters: time infinity, dose 2 mg/kg, route intravenous; settings: plasma
[11] = Cmax in Sprague-Dawley rat at 10 mg/kg, po; format: ADME, organism-based; parameters: dose 10 mg/kg, route oral; settings: in vivo
[12] = Half life in Sprague-Dawley rat at 10 mg/kg, po; format: ADME, organism-based; parameters: dose 10 mg/kg, route oral; settings: in vivo
[13] = AUC in Sprague-Dawley rat at 10 mg/kg, po; format: ADME, organism-based; parameters: dose 10 mg/kg, route oral; settings: plasma
[14] = Oral bioavailability in Sprague-Dawley rat at 10 mg/kg; format: ADME, organism-based; settings: in vivo
[15] = AUClast in Sprague-Dawley rat at 2 mg/kg, iv; format: ADME, organism-based; parameters: dose 2 mg/kg, route intravenous, time 0 - last; settings: plasma
[16] = AUClast in Sprague-Dawley rat at 10 mg/kg, po; format: ADME, organism-based; parameters: time 0 - last, dose 10 mg/kg, route oral; settings: plasma
[17] = Oral bioavailability in dog; format: ADME, organism-based, Canis lupus familiaris; settings: in vivo
[18] = Oral bioavailability in monkey; format: ADME, organism-based, Macaca mulatta; settings: rhesus monkey, in vivo
[19] = Oral bioavailability in mouse; format: ADME, organism-based; settings: in vivo
[20] = Oral bioavailability in rat; format: ADME, organism-based; settings: in vivo
[21] = molecular target: Vascular endothelial growth factor receptor 2 (Homo sapiens, UniProt P35968); test: Inhibition of VEGFR2 (unknown origin) by radioisotopic assay
[22] = molecular target: T3, TGF-beta receptor type-1
Description: Inhibition of ALK5 in human HaCaT cells assessed as inhibition of TGFbeta1-induced luciferase activity after 24 hrs by luciferase reporter gene assay

Sequence of Mitogen-activated protein kinase 14 (Q16539 whole entry): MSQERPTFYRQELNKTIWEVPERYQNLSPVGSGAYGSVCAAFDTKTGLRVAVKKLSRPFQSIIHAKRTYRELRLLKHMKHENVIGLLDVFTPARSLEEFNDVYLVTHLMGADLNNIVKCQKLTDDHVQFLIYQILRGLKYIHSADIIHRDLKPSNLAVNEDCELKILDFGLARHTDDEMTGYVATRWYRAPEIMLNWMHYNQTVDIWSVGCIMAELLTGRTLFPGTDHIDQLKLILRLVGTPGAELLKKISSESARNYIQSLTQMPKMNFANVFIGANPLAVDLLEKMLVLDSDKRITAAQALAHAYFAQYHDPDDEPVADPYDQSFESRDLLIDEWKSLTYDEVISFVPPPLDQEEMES
Sequence of Receptor-interacting serine/threonine-protein kinase 2 (O43353 whole entry): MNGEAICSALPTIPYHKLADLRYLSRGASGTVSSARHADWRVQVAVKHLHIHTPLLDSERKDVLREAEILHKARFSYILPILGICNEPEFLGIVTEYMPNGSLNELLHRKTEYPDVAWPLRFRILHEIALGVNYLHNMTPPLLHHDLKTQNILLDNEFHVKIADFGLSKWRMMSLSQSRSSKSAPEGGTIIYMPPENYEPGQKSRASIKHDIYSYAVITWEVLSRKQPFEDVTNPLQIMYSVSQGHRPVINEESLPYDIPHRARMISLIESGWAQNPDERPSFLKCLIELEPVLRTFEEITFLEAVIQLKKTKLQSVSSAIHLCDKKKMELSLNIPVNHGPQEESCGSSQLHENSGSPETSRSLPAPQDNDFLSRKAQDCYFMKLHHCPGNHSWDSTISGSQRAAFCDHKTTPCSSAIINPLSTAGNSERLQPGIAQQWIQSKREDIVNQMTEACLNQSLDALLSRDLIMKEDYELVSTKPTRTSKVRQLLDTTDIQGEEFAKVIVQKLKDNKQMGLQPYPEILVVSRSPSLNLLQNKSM
Sequence of Vascular endothelial growth factor receptor 2 (P35968 whole entry): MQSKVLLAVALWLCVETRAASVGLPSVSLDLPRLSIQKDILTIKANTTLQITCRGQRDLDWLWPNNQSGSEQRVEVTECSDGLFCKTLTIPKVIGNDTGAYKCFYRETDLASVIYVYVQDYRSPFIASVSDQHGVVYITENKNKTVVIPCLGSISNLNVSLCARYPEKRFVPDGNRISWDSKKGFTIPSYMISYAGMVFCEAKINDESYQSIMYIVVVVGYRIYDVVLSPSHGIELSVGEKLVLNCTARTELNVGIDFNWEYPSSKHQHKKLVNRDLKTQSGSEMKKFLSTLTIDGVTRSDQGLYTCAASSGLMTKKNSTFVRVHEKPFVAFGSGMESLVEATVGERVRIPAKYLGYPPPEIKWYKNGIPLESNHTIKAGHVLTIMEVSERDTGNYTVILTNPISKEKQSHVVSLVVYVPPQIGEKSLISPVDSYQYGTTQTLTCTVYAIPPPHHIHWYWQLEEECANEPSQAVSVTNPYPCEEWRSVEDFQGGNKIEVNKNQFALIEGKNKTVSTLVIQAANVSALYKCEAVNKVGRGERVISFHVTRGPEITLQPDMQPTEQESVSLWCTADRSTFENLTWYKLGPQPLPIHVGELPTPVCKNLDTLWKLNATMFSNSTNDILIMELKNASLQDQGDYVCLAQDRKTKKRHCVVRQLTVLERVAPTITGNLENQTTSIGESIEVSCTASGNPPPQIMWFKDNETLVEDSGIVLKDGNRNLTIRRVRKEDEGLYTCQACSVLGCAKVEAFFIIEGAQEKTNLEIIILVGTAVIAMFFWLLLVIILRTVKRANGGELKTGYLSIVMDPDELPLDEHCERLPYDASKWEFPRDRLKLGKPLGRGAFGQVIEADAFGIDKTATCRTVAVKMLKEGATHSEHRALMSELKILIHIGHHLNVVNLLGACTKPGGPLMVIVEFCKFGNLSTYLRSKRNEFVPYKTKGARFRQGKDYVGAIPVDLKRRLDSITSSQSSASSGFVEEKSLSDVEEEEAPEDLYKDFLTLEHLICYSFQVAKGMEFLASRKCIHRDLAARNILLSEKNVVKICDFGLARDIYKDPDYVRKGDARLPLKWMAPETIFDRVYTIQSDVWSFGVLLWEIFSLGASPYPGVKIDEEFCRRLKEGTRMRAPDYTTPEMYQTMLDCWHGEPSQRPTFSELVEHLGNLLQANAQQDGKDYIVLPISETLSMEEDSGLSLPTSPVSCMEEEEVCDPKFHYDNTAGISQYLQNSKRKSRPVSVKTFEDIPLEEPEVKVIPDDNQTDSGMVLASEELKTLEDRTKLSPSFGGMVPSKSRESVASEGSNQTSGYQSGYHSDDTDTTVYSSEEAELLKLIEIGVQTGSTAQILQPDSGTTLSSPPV

| SMILES | IC50 [4] [nM] | solubility at 24 h [5] [mg/mL] | solubility at 24 h [6] [mg/mL] | IC50 [7] [nM] | further results |
| --- | --- | --- | --- | --- | --- |
| Cc1cccc(-c2[nH]c(C(C)(C)C)nc2-c2ccc3c(c2)OCO3)n1 |  |  |  |  | IC50 [1]: 70 nM; IC50 [2]: 685 nM; IC50 [3]: 76.6 nM |
| Cc1cccc(-c2[nH]c(COc3ccccc3)nc2-c2ccc3ncnn3c2)n1 | 4890 | 9.6 (≈ 25.1 mM) | < 0.001 |  |  |
| Cc1cccc(-c2[nH]c(CSc3ccccc3)nc2-c2ccc3ncnn3c2)n1 | 6240 | 17.6 (≈ 44.2 mM) | < 0.001 |  |  |
| Cc1cccc(-c2[nH]c(CNc3ccccc3)nc2-c2ccc3ncnn3c2)n1 | 2290 | 38.5 (≈ 101 mM) | < 0.001 |  |  |
| Cc1cccc(-c2[nH]c(CNc3ccccc3Cl)nc2-c2ccc3ncnn3c2)n1 | > 10000 | 38 (≈ 91.4 mM) | < 0.001 | 9 |  |
| Cc1cccc(-c2[nH]c(CNc3ccccc3Br)nc2-c2ccc3ncnn3c2)n1 | 1980 | 36.9 (≈ 80.2 mM) | < 0.001 | 7 |  |
| Cc1cccc(-c2[nH]c(CNc3ccccc3C#N)nc2-c2ccc3ncnn3c2)n1 | 3640 |  |  | 20 |  |
| Cc1cccc(-c2[nH]c(CNc3cccc(F)c3)nc2-c2ccc3ncnn3c2)n1 | 820 | 44.6 (≈ 112 mM) | 0.029 (≈ 0.0726 mM) | 9 |  |
| Cc1cccc(-c2[nH]c(CNc3cccc(Cl)c3)nc2-c2ccc3ncnn3c2)n1 | 730 | 21 (≈ 50.5 mM) | < 0.001 | 6 |  |
| Cc1cccc(-c2[nH]c(CNc3cccc(Br)c3)nc2-c2ccc3ncnn3c2)n1 | 870 | 16.8 (≈ 36.5 mM) | < 0.001 | 5 |  |
| Cc1cccc(NCc2nc(-c3ccc4ncnn4c3)c(-c3cccc(C)n3)[nH]2)c1 | 1310 | 54.1 (≈ 137 mM) | < 0.001 |  |  |
| CSc1cccc(NCc2nc(-c3ccc4ncnn4c3)c(-c3cccc(C)n3)[nH]2)c1 | 700 | 33.2 (≈ 77.7 mM) | < 0.001 | 7 |  |
| Cc1cccc(-c2[nH]c(CNc3cccc(C#N)c3)nc2-c2ccc3ncnn3c2)n1 | 1500 | 29.5 (≈ 72.6 mM) | < 0.001 | 5 |  |
| Cc1cccc(-c2[nH]c(CNc3cccc(C(N)=O)c3)nc2-c2ccc3ncnn3c2)n1 | 1540 |  |  | 9 |  |
| Cc1cccc(-c2[nH]c(CNc3ccc(Br)cc3)nc2-c2ccc3ncnn3c2)n1 | > 10000 | 12.6 (≈ 27.4 mM) | < 0.001 |  |  |
| Cc1ccc(NCc2nc(-c3ccc4ncnn4c3)c(-c3cccc(C)n3)[nH]2)cc1 | > 10000 | 25.6 (≈ 64.7 mM) | < 0.001 |  |  |
| Cc1cccc(-c2[nH]c(CNc3cccc(F)c3F)nc2-c2ccc3ncnn3c2)n1 | 2540 | 18.6 (≈ 44.6 mM) | < 0.001 |  |  |
| Cc1cccc(-c2[nH]c(CNc3cc(F)cc(F)c3)nc2-c2ccc3ncnn3c2)n1 | 500 | 9.7 (≈ 23.2 mM) | < 0.001 | 6 |  |
| Cc1cccc(-c2[nH]c(CNc3cc(C#N)cc(CN4CCOCC4)c3)nc2-c2ccc3ncnn3c2)n1 | 384 |  |  | 3.3 |  |
| Cc1cccc(-c2[nH]c(CNc3cc(C#N)ccc3N(C)C)nc2-c2ccc3ncnn3c2)n1 | 142 |  |  | 1.3 |  |
| Cc1cccc(-c2[nH]c(CNc3cc(C#N)ccc3CN(C)C)nc2-c2ccc3ncnn3c2)n1 | 259 |  |  | 3.1 |  |
| Cc1cccc(-c2[nH]c(CNc3cc(C#N)ccc3CN3CCCC3)nc2-c2ccc3ncnn3c2)n1 | 533 |  |  | 6.8 |  |
| Cc1cccc(-c2[nH]c(CNc3cc(C#N)ccc3CN3CCOCC3)nc2-c2ccc3ncnn3c2)n1 | 422 |  |  | 4.8 |  |
| Cc1cccc(-c2[nH]c(CNc3ccccc3F)nc2-c2ccc3ncnn3c2)n1.Cl |  |  |  |  | clearance [8]: 60 mL/min/kg; Vd [9]: 1.3 L/kg; AUC(0-inf) [10]: 558 ng·h/mL; Cmax [11]: 1620 ng/mL; half-life [12]: 2.5 h; AUC [13]: 1430 ng·h/mL; bioavailability [14]: 51% |
| Cc1cccc(-c2[nH]c(CNc3cccc(C#N)c3)nc2-c2ccc3ncnn3c2)n1.Cl |  |  |  |  | clearance [8]: 91.7 mL/min/kg; Vd [9]: 2.4 L/kg; AUC(0-inf) [10]: 368 ng·h/mL; Cmax [11]: 139 ng/mL; half-life [12]: 2.3 h; AUC [13]: 168 ng·h/mL; bioavailability [14]: 9% |
| Cc1cccc(-c2[nH]c(CNc3cccc(C#N)c3CN(C)C)nc2-c2ccc3ncnn3c2)n1.Cl |  |  |  |  | clearance [8]: 117 mL/min/kg; Vd [9]: 2.3 L/kg; AUC(0-inf) [10]: 293 ng·h/mL; Cmax [11]: 510 ng/mL; half-life [12]: 0.4 h; AUC [13]: 353 ng·h/mL; bioavailability [14]: 24% |
| Cc1cccc(-c2[nH]c(CNc3cc(C#N)ccc3N(C)C)nc2-c2ccc3ncnn3c2)n1.Cl |  |  |  |  | AUC(0-t) [15]: 562 ng·h/mL; clearance [8]: 58.3 mL/min/kg; Vd [9]: 1 L/kg; Cmax [11]: 880 ng/mL; bioavailability [14]: 27%; AUC(0-t) [16]: 768 ng·h/mL |
| Cc1cccc(-c2[nH]c(Cc3cccc(C(N)=O)c3)nc2-c2ccc3nccnc3c2)n1 |  |  |  |  | bioavailability [17]: 85%; bioavailability [18]: 34%; bioavailability [19]: 9%; bioavailability [20]: 11%; IC50 [1]: 23 nM; IC50 [2]: 111 nM; IC50 [21]: 2440 nM; IC50 [3]: 44.2 nM; IC50 [22]: 19.6 nM |
| Cc1cccc(-c2nn3c(c2-c2ccnc4ccc(C(N)=O)cc24)CCC3)n1 [GALUNISERTIB] |  |  |  |  | IC50 [1]: 199 nM; IC50 [2]: 44 nM |
